Test results from patent US20090053721A1, “VOLTAGE-GATED ION CHANNEL MUTANTS FOR USE IN IDENTIFYING ION CHANNEL MODULATING COMPOUNDS” (CARDIOME PHARMA CORP., priority 2007, published 2009).
Counter-ions that a name gives are not always drawn.

Tests used:
[1] = target: T1, Kv1.5 A501V mutant channel (Homo sapiens, UniProt P22460, A501V); test: Whole-cell patch-clamp block of mutant Kv1.5 current in HEK293 cells; assay type: cell-based
T1 construct: subcloned as a fragment back into full-length Kv1.5; expressed in transfected cells; host or cells: HEK293, transient transfection
Procedure: (§1) Stable lines of HEK293 cells expressing Kv1.5, or transient transfection of mutant Kv1.5 channels were used in all experiments. […] (Coralville, Iowa, USA), and mutants were generated using the Stratagene Quikchange kit (Stratagene, Calif., USA). […] This was added to the cells for overnight incubation after washing the media with 900 μl of MEM with 10% FBS. […] Media contained 10% bovine serum and 0.5 mg/ml geneticin for stable lines. On the day before recording, stably-expressing cells were washed with MEM, treated with trypsin/EGTA for one minute and plated on 25 mm^2 coverslips. All cell culture supplies were obtained from Invitrogen (Mississauga, ON, Canada). Control bath solution contained (in mM): 5 KCl, 135 NaCl, 2.8 sodium acetate, 1 MgCl2, 10 HEPES and 1 CaCl2, adjusted to pH 7.4 with NaOH. Patch pipettes contained (in mM): 130 KCl, 5 EGTA, 1 MgCl2, 10 HEPES, 4 Na2ATP, and 0.1 GTP, adjusted to pH 7.2 with KOH. All chemicals used to make solutions were obtained from Sigma-Aldrich (Mississauga, ON, Canada). […] (Vancouver, BC, Canada) and prepared as a stock solution (50 mM) in H2O. […] DMSO concentrations for either drug never exceeded 0.1% v/v in the final experimental solutions. Coverslips with adherent cells plated on the surface were placed in a superfusion chamber (volume 300 μl) containing the control bath solution at 22° C. Whole-cell current recording and analysis were carried out using an Axopatch 200B amplifier and pClamp10 software (Axon Instruments, CA, USA). Patch electrodes were pulled from thin-walled borosilicate glass (World Precision Instruments, FL, USA) on a horizontal micropipette puller (Sutter Instruments, CA, USA). […] Analogue capacity compensation and 80% series resistance compensation were used during whole cell measurements. Membrane potentials were not corrected for junction potentials that arise between the pipette and bath solution. […] Data were sampled at 10-20 kHz and filtered at 5 to 10 kHz. […] Data are represented as mean±SE unless otherwise specified. For significance of differences, * represents p<0.05, ** p<0.01; statistical analysis was conducted using Student's t-test (unpaired). Clampfit software (Axon Instruments, CA, USA) was used to analyze current traces. Data from each test pulse (currents in the presence of drug) were normalized to control test pulse currents obtained before drug exposure. […] IC50 is the concentration producing half-maximal inhibition; and n is the Hill coefficient.

[2] = target: T2, Kv1.5 C500A mutant channel (Homo sapiens, UniProt P22460, C500A); test: as above; assay type: cell-based
T2 construct: subcloned as a fragment back into full-length Kv1.5; expressed in transfected cells; host or cells: HEK293, transient transfection
Procedure: as §1

[3] = target: T3, Kv1.5 I508L mutant channel (Homo sapiens, UniProt P22460, I508L); test: as above; assay type: cell-based
T3 construct: subcloned as a fragment back into full-length Kv1.5; expressed in transfected cells; host or cells: HEK293, transient transfection
Procedure: as §1

[4] = target: T4, Kv1.5 I508Y mutant channel (Homo sapiens, UniProt P22460, I508Y); test: as above; assay type: cell-based
T4 construct: subcloned as a fragment back into full-length Kv1.5; expressed in transfected cells; host or cells: HEK293, transient transfection
Procedure: as §1

[5] = target: T5, Kv1.5 P532L mutant channel (Homo sapiens, UniProt P22460, P532L); test: as above; assay type: cell-based
T5 construct: subcloned as a fragment back into full-length Kv1.5; expressed in transfected cells; host or cells: HEK293, transient transfection
Procedure: as §1

[6] = target: T6, Kv1.5 T479S mutant channel (Homo sapiens, UniProt P22460, T479S); test: as above; assay type: cell-based
T6 construct: subcloned as a fragment back into full-length Kv1.5; expressed in transfected cells; host or cells: HEK293, transient transfection
Procedure: as §1

[7] = target: T7, Kv1.5 T480A mutant channel (Homo sapiens, UniProt P22460, T480A); test: as above; assay type: cell-based
T7 construct: subcloned as a fragment back into full-length Kv1.5; expressed in transfected cells; host or cells: HEK293, transient transfection
Procedure: as §1

[8] = target: T8, Kv1.5 T480S mutant channel (Homo sapiens, UniProt P22460, T480S); test: as above; assay type: cell-based
T8 construct: subcloned as a fragment back into full-length Kv1.5; expressed in transfected cells; host or cells: HEK293, transient transfection
Procedure: as §1

[9] = target: T9, Kv1.5 V505L mutant channel (Homo sapiens, UniProt P22460, V505L); test: as above; assay type: cell-based
T9 construct: subcloned as a fragment back into full-length Kv1.5; expressed in transfected cells; host or cells: HEK293, transient transfection
Procedure: as §1

IKs (KvLQT1) = IKs (KvLQT1) (Homo sapiens, UniProt P51787); test: Sensitivity of IKs channel to vernakalant (unpublished data)
Chain of IKs (KvLQT1) (P51787 whole entry): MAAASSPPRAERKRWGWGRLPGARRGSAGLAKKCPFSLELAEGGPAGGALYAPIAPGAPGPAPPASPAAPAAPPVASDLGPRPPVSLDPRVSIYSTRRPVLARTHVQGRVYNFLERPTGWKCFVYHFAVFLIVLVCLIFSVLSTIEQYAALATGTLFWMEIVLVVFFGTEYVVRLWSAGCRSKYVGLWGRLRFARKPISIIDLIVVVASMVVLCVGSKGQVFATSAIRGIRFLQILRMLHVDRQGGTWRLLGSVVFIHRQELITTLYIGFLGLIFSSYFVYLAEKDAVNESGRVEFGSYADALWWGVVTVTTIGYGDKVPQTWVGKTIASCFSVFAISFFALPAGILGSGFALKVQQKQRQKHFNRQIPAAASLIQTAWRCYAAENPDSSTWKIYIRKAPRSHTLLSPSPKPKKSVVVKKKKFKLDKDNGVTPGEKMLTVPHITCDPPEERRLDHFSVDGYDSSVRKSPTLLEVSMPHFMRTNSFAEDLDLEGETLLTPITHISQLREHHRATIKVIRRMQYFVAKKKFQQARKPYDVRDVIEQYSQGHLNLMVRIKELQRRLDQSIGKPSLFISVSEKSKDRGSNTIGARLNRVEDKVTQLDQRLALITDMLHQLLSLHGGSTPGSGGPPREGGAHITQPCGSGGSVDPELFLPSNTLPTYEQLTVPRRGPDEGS

T8 sequence (P22460 whole entry T480S, the tested form may be a part): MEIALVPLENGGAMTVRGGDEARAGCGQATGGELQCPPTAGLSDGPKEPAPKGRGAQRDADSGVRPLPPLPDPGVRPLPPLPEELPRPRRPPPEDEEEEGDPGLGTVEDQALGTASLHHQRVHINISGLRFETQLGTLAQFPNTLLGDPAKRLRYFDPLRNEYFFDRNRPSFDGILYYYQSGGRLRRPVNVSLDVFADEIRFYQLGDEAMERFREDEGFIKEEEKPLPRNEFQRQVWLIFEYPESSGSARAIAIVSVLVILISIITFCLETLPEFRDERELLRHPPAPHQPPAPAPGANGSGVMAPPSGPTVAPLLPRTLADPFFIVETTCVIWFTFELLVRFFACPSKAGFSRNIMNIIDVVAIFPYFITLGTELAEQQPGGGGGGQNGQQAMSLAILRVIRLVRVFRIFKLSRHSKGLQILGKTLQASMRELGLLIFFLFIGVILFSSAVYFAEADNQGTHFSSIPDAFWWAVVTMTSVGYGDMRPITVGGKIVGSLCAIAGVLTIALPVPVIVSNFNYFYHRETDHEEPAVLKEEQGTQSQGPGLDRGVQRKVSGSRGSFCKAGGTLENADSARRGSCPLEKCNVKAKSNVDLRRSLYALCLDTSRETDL
T2 sequence (P22460 whole entry C500A, the tested form may be a part): as the sequence (P22460 whole entry T480S, the tested form may be a part) above, with S480T, C500A counted along it
T1 sequence (P22460 whole entry A501V, the tested form may be a part): as the sequence (P22460 whole entry T480S, the tested form may be a part) above, with S480T, A501V counted along it
T7 sequence (P22460 whole entry T480A, the tested form may be a part): as the sequence (P22460 whole entry T480S, the tested form may be a part) above, with S480A counted along it
T9 sequence (P22460 whole entry V505L, the tested form may be a part): as the sequence (P22460 whole entry T480S, the tested form may be a part) above, with S480T, V505L counted along it
T5 sequence (P22460 whole entry P532L, the tested form may be a part): as the sequence (P22460 whole entry T480S, the tested form may be a part) above, with S480T, P532L counted along it
T3 sequence (P22460 whole entry I508L, the tested form may be a part): as the sequence (P22460 whole entry T480S, the tested form may be a part) above, with S480T, I508L counted along it
T4 sequence (P22460 whole entry I508Y, the tested form may be a part): as the sequence (P22460 whole entry T480S, the tested form may be a part) above, with S480T, I508Y counted along it
T6 sequence (P22460 whole entry T479S, the tested form may be a part): as the sequence (P22460 whole entry T480S, the tested form may be a part) above, with T479S, S480T counted along it

COc1ccc(CCO[C@@H]2CCCC[C@H]2N2CC[C@@H](O)C2)cc1OC [Vernakalant, 3-Pyrrolidinol, 1-[(1R,2R)-2-[2-(3,4-dimethoxyphenyl)ethoxy]cyclohexyl]-,hydrochloride, (3R)]
Hill coefficient [1]: 0.85 | Fractional Block ± SEM ([1]; 10 μM vernakalant): 0.69 ± 0.04 | Hill coefficient [2]: 0.95 | Fractional Block ± SEM ([2]; 10 μM vernakalant): 0.21 ± 0.04 | Hill coefficient [3]: 1.00 | Fractional Block ± SEM ([3]; 10 μM vernakalant): 0.38 ± 0.05 | Hill coefficient [4]: 1.46 | Fractional Block ± SEM ([4]; 10 μM vernakalant): 0.21 ± 0.03 | Hill coefficient [5]: 0.96 | Fractional Block ± SEM ([5]; 10 μM vernakalant): 0.26 ± 0.03 | Hill coefficient [6]: 0.95 | Fractional Block ± SEM ([6]; 10 μM vernakalant): 0.23 ± 0.04 | Hill coefficient [7]: 0.88 | Fractional Block ± SEM ([7]; 10 μM vernakalant): 0.23 ± 0.04 | Hill coefficient [8]: 0.64 | Fractional Block ± SEM ([8]; 10 μM vernakalant): 0.25 ± 0.07 | Hill coefficient [9]: 0.77 | Fractional Block ± SEM ([9]; 10 μM vernakalant): 0.22 ± 0.07 | sensitivity of IKs channel to drug (IKs (KvLQT1)): not sensitive
